Assay results as given in patent US20140357579A1, “SYNTHETIC PEPTIDE AMIDES AND DIMERS THEREOF” (priority 2006, published 2014).

Experiments:
mice [1] = assay: Acetic acid-induced writhing assay in mice; type: in vivo; conditions: IRC mice, delivered subcutaneously
CYP3A4 = CYP3A4 (Homo sapiens, UniProt P08684); assay: Recombinant human cytochrome P450 CYP3A4 inhibition (Cerep); conditions: 10 uM test compound, percent remaining CYP activity
CYP2C9 = CYP2C9 (Homo sapiens, UniProt P11712); assay: Cytochrome P450 CYP2C9 inhibition, human liver microsomes (Cerep); conditions: 10 uM test compound, percent remaining CYP activity
CYP2C9, sequence (P11712 whole entry): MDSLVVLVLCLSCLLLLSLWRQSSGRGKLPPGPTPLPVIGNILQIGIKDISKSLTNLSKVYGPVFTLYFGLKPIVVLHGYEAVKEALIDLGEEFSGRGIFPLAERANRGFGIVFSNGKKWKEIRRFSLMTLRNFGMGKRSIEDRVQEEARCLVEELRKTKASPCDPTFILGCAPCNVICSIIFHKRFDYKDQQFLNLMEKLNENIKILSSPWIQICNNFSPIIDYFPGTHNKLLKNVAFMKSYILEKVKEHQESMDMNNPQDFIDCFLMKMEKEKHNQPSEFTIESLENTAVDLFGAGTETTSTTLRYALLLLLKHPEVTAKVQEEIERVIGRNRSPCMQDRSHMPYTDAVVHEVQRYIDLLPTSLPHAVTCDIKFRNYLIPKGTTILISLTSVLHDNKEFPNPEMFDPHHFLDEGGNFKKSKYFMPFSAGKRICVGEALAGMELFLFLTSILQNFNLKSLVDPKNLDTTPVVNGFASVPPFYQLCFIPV

[2] = molecular target: T1, mouse kappa opioid receptor (mKOR) (Mus musculus, UniProt P33534); assay: Inhibition of forskolin-stimulated cAMP production in R1.G1 cells (TR-FRET cAMP immunoassay); type: cell-based; conditions: R1.G1 cells
T1 construct: a mouse thymoma cell line that expresses only the kappa-opioid receptor and no other opioid receptor subtype; host or cells: R1.G1 mouse thymoma cells
T1 sequence (P33534 whole entry): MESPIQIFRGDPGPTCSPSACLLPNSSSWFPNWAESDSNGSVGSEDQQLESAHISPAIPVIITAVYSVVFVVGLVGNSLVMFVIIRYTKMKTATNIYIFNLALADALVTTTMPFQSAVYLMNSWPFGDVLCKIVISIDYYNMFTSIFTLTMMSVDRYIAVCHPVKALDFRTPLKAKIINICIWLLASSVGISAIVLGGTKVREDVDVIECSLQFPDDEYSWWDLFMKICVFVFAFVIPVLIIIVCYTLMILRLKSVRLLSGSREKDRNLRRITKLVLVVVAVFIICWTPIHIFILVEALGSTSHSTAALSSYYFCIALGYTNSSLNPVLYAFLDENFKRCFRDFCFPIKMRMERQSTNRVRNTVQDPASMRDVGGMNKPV

CYP1A = assay: Cytochrome P450 CYP1A inhibition, human liver microsomes (Cerep); conditions: 10 uM test compound, percent remaining CYP activity
CYP2D6 = CYP2D6 (Homo sapiens, UniProt P10635); assay: Cytochrome P450 CYP2D6 inhibition, human liver microsomes (Cerep); conditions: 10 uM test compound, percent remaining CYP activity
CYP2D6, sequence (P10635 whole entry): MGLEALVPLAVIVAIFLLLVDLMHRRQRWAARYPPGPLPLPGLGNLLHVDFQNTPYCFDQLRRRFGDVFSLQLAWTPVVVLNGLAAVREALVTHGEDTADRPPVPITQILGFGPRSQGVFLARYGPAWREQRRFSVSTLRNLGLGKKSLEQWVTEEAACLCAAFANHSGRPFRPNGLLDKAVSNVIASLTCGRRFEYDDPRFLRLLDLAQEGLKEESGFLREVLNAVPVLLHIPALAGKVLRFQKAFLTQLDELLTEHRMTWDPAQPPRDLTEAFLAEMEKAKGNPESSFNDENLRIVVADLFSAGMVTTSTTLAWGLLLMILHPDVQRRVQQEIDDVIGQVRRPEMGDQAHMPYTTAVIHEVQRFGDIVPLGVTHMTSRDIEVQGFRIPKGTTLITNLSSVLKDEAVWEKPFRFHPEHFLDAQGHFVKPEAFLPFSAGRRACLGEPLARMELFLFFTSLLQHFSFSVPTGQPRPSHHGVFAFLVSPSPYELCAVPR

mice [3] = assay: Inhibition of locomotion in mice (sedation); conditions: delivered subcutaneously
[4] = molecular target: T2, human kappa opioid receptor (hKOR) (Homo sapiens, UniProt P41145); assay: NFAT-luciferase reporter assay in HEK-293 cells transfected with human kappa opioid receptor and chimeric G-protein; type: cell-based; conditions: for hKOR Efficacy(%): percent maximal activation compared to full induction by known kappa agonists
T2 construct: expressed in transfected cells; host or cells: HEK-293 cells (ATCC), transient transfection with pcDNA3-hOPRK1
T2 sequence (P41145 whole entry): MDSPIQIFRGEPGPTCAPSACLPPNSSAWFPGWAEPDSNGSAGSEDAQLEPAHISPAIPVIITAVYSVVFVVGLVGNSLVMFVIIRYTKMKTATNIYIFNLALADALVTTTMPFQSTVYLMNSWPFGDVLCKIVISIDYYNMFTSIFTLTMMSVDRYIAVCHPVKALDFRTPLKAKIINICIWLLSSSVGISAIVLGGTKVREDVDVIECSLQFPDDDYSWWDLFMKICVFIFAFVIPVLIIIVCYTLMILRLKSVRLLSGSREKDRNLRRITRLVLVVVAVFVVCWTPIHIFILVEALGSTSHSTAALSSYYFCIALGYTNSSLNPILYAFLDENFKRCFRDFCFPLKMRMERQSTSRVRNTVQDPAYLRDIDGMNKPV

CYP2C19 = CYP2C19 (Homo sapiens, UniProt P33261); assay: Cytochrome P450 CYP2C19 inhibition, human liver microsomes (Cerep); conditions: 10 uM test compound, percent remaining CYP activity
CYP2C19, sequence (P33261 whole entry): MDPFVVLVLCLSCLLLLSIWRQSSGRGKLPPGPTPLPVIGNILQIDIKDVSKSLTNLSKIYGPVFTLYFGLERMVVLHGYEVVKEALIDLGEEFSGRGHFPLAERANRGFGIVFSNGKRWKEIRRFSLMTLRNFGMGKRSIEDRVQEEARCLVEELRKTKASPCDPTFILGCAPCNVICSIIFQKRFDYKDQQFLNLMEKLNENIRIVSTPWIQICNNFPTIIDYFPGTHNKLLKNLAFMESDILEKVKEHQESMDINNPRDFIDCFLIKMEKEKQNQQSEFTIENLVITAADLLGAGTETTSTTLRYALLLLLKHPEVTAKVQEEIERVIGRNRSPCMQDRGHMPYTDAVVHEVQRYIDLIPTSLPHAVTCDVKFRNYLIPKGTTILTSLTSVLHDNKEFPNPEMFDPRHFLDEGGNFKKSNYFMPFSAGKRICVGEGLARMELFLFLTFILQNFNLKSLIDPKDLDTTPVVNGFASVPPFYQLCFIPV

human mu opioid receptor = human mu opioid receptor (Homo sapiens, UniProt P35372); assay: Similar assay for potency on the human mu opioid receptor; type: cell-based
human mu opioid receptor, sequence (P35372 whole entry): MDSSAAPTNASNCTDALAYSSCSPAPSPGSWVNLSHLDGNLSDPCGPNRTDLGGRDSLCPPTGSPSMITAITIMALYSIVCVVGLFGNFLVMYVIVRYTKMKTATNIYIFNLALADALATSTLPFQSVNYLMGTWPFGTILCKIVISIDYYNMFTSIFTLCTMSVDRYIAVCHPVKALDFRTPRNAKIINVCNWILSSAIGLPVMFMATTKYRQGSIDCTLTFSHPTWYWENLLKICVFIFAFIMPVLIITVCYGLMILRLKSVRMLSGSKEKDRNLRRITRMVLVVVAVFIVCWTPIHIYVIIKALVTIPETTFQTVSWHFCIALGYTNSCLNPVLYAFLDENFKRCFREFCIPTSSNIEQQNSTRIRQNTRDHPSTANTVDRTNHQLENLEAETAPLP
Description: Synthetic peptide amides of the invention were tested in a similar assay for potency on the human mu opioid receptor.
The synthetic peptide amide (53) was tested in a similar assay for potency on the human mu opioid receptor.

CYP3A4, sequence (P08684 whole entry): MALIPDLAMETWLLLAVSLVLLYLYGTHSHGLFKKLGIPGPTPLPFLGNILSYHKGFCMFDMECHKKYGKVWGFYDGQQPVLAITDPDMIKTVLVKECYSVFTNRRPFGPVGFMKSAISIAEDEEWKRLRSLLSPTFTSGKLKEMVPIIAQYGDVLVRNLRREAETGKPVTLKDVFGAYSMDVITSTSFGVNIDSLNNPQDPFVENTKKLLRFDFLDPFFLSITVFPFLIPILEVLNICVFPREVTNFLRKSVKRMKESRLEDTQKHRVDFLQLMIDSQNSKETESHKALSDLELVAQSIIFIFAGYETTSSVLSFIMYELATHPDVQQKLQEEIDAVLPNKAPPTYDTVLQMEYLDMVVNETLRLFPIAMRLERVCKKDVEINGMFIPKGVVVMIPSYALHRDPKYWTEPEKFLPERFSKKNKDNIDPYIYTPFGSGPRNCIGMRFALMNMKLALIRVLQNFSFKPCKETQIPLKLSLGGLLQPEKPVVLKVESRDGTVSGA

Row | Compound | ED50 in the acetic acid-induced writhing assay (mice [1]) | Percent Activity of CYP3A4 (CYP3A4; Expt 1) | Percent Activity of CYP3A4 (CYP3A4; Expt 2) | Percent Activity of CYP2C9 (CYP2C9; Expt 1) | Percent Activity of CYP2C9 (CYP2C9; Expt 2) | mKOR Efficacy(%) [2] | Percent Activity of CYP1A (CYP1A; Expt 1) | Percent Activity of CYP1A (CYP1A; Expt 2) | Percent Activity of CYP2D6 (CYP2D6; Expt 1) | Percent Activity of CYP2D6 (CYP2D6; Expt 2) | ED50 in the inhibition of locomotion assay (mice [3]) | hKOR Efficacy(%) [4] | EC50 ([4]; transfected HEK-293 cells, luciferase reporter, read-out: hKOR EC50) | Percent Activity of CYP2C19 (CYP2C19; Expt 1) | Percent Activity of CYP2C19 (CYP2C19; Expt 2) | EC50 (human mu opioid receptor)
1 | CC(C)C[C@@H](NC(=O)[C@@H](Cc1ccccc1)NC(=O)[C@H](N)Cc1ccccc1)C(=O)N[C@H](CCCN)C(=O)N1CCCN(C2=NCCN2)CC1 [Compound 17, D-Phe-D-Phe-D-Leu-D-Orn-[4-(4,5-dihydro-1H-imidazol-2-yl)homopiperazine amide]] | 0.074 mg/kg | 94.7% | 95.9% | 99.2% | 98.2% | 99% | 97.1% | 95.8% | 98.4% | 98.2% | 3.172 mg/kg | 90% | 0.12 nM | 94.1% | 97.8% | –
2 | CC(C)C[C@@H](NC(=O)[C@@H](Cc1ccccc1)NC(=O)[C@H](N)Cc1ccccc1)C(=O)N[C@H](CCCN)C(=O)N1CCOC(C(=O)O)C1 (stereo partly drawn) [Compound 53, D-Phe-D-Phe-D-Leu-D-Orn-[R/S-2-carboxymorpholine]-OH] | – | – | – | – | – | 100% | – | – | – | – | – | 100% | – | – | – | ≥ 1000 nM
